Results from patent US4882347A, “"N-imidazolyl derivatives of bicyclic compounds and pharmaceutical compositions containing the same"” (Farmitalia Carlo Erba, S.r.l., priority 1987, dated 1989).
Like-named read-outs stand apart in the source and are kept apart here.

Key:
[1] = tested on: doxorubicin induced nephrosis; assay: doxorubicin induced nephrosis in rats (oral treatment); assay type: in vivo, rat; conditions: 50 mg/kg b.i.d. oral
Method: The compound 1,2-dihydro-3-(1-imidazolyl)-6-carboxy-naphthalene (internal code FCE 22178) was orally administered, for doxorubicin induced nephrosis, to rats at a dosage of 50 mg/kg b.i.d. for 7 days starting from the 21st day after doxorubicin injection. A reduction in both proteinuria (from 1018±102 to 751±49 mg/24 h p<0.005) and creatinine serum levels (from 1.85±0.26 to 0.97±0.009 mg/dl p<0.001) was observed.
Moreover, in the spontaneous focal glomerulonephritis of the MNS rats, FCE 22178 was administered at the dosage of 50 mg/kg p.o. die+100 mg/kg/die in drinking water starting from the first month of age and all along the life of the animal and in comparison with a not treated group.
Compound 1,2-dihydro-3-(1-imidazolyl)-6-carboxynaphthalene, internal code FCE 22178, for instance, in this model at the oral dosage of 50 mg/kg b.i.d. for 7 days starting from the 21st after doxorubicin injection lowered triglycerides serum levels from 783±152 to 481.8±84 mg/dl.

[2] = tested on: spontaneous focal glomerulonephritis of the MNS rats; assay: spontaneous focal glomerulonephritis in Milan Normotensive Strain (MNS) rats; assay type: in vivo, rat
Method: Moreover, in the spontaneous focal glomerulonephritis of the MNS rats, FCE 22178 was administered at the […] not treated group.
Sclerotic glomeruli show massive deposition of PAS-stained material.
Flattening and fusion of the foot processes, as well as formation of blebs and of electron dense lysosomes, together with the frequent detachment of the cell from the GMB is regarded to be related to the massive leakage of proteins through the glomerulus.

glomerular TxA2 synthase = target: T1, glomerular TxA2 synthase (Rattus norvegicus, UniProt P49430); assay: in vitro TxA2 synthase inhibiting activity in isolated glomeruli (TxB2 by RIA); assay type: biochemical
T1 construct: from tissue; host or cells: isolated glomeruli of rat kidney (remnant kidney and sham operated rats)
T1 sequence (P49430 1-533): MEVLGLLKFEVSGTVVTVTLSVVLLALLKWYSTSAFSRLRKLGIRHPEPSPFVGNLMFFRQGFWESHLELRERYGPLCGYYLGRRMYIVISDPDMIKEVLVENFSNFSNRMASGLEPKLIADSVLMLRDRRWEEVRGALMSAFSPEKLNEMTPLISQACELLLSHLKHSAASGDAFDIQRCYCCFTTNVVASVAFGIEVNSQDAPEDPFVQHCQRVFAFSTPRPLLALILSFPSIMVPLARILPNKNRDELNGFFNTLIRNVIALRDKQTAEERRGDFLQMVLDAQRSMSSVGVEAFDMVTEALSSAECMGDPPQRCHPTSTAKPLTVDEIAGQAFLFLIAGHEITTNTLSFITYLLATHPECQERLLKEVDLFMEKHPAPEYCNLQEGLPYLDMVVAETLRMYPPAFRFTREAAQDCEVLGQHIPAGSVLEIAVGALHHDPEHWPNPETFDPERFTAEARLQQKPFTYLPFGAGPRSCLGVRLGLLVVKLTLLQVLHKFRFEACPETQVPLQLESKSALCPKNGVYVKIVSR
Method: (§1) Charles River C.D. male rats of 6 weeks of age were used for this experiment. […] Four weeks after the second operation the blood pressure was measured and the rats were placed in metabolic cages for evaluation of proteinuria, measured by the method of Lowry. Only the animals with a blood pressure ≥170 mm Hg and an urinary protein excretion ≥100 mg/day were used. Comparative experiments were performed using sham operated rats. Also the in vitro TxA2 synthase inhibiting activities in serum and in isolated glomeruli were studied and compared. Glomerula preparation was performed according to the method previously described and TxB2 was measured by RIA.

serum TxA2 synthase = target: T2, serum TxA2 synthase (Rattus norvegicus, UniProt P49430); assay: in vitro TxA2 synthase inhibiting activity in serum (TxB2 by RIA); assay type: biochemical
T2 construct: from tissue; host or cells: rat blood / serum (remnant kidney and sham operated rats)
T2 sequence (P49430 1-533): T1 sequence (P49430 1-533)
Method: as §1

[3] = glomeruli of RRM (remnant kidney) rats, read-out: IC50, glomerular TxB2 production
[4] = serum of RRM (remnant kidney) rats, read-out: IC50, serum TxB2 production / TxA2 synthesis

Question: What does the source list for O=C(O)c1ccc2c(c1)C=C(n1ccnc1)CC2 [FCE 22178, 1,2-dihydro-3-(1-imidazolyl)-6-carboxynaphthalene]?
Answer: creatinine serum levels ([1]; 7 days from 21st day after doxorubicin, from 1.85±0.26, p<0.001): 0.97 ± 0.009 mg/dL; triglycerides serum levels ([1]; 7 days from 21st day after doxorubicin, from 783±152): 481.8 ± 84 mg/dL; proteinuria ([1]; 7 days from 21st day after doxorubicin, from 1018±102, p<0.005): 751±49 mg/24 h; urine TxB2 levels ([1]; 7 days, from 20.3±2.5 ng/24 h): under the detection limit of the method; serum TxB2 levels ([1]; 7 days, from 536±55 ng/ml): 92 ± 8.3 ng/mL; production of TxA2 (measured as TxB2 levels) in isolated glomeruli ([2]; 50 mg/kg p.o. die + 100 mg/kg/die in drinking water from first month of age, untreated 4.44±1.2 at 8 months, p<0.01): 2.77±0.53 ng/mg prot.; TxB2 in urine ([2]; 50 mg/kg p.o. die + 100 mg/kg/die in drinking water, pattern as in isolated glomeruli (greatly reduced)): The same pattern was observed in urine; total cholesterol ([2]; 14 months old rats treated for 2 months, from 223±36): 130.5 ± 12.2 mg/dL; phospholipids ([2]; 14 months old rats treated for 2 months, from 338.6±56): 197.8 ± 21 mg/dL; triglycerides ([2]; 14 months old rats treated for 2 months, from 399.6±105): 169.3 ± 26.1 mg/dL; glomerular filtration rate (GFR) ([2]; adult MNS rats, 50 mg/kg p.o. die + 100 mg/kg/die in drinking water, printed: 1210±38 in controls vs treated, p<0.01): 816±45 μl/min/g k.w.; proteinuria ([2]; adult MNS rats, 50 mg/kg p.o. die + 100 mg/kg/die in drinking water, vs 428.8±42.3 in controls, p<0.01): 237±30.3 mg/24 h; number of sclerotic glomeruli ([2]; light microscopy, aged (14 months) MNS rats, control 27%, p<0.05): 22%; entity of flattening and fusion of foot processes in non sclerotic glomeruli ([2]; ultrastructural investigation, treated vs untreated MNS rats): definitly lower in treated animals; selectivity for glomerular TxA2 synthase (vs serum) (glomerular TxA2 synthase; RRM rats, compared to OKYO46): greater selectivity for glomerular TxA2 synthase; IC50 (glomerular TxA2 synthase; [3]): 0.032 nM; IC50 (glomerular TxA2 synthase; glomeruli of control sham operated rats, read-out: IC5 (so in the source), glomeruli): 0.07 nM; IC50 (serum TxA2 synthase; [4]): 1.7 nM; IC50 (serum TxA2 synthase; serum of control sham operated rats, read-out: IC5 (so in the source), serum): 1 nM

Question: For Cl.O.O=C(O)/C=C/c1ccc(Cn2ccnc2)cc1 [OKYO46, (E)-3-[4-(1H-imidazol-1-ylmethyl)-phenyl]-2-propenoic acid monohydrochloride monohydrate, reference compound], which “selectivity glomeruli vs serum” value (glomerular TxA2 synthase; control sham operated rats) is on record?
Answer: losed his selectivity

Question: What about the IC50 (glomerular TxA2 synthase; [3]) of the same compound?
Answer: 0.09 nM

Question: What about the IC50 (glomerular TxA2 synthase; glomeruli of control sham operated rats, read-out: IC50, glomeruli) of the same compound?
Answer: 1 nM

Question: And the IC50 (serum TxA2 synthase; [4])?
Answer: 0.6 nM

Question: What about the IC50 (serum TxA2 synthase; serum of control sham operated rats, read-out: IC50, serum) of the same compound?
Answer: 50000 nM
